Target: T1, α-glucosidase (Saccharomyces cerevisiae, UniProt P53341)
T1 construct: purchased Sigma
Assay: α-glucosidase inhibition test (pNPG substrate, OD 405 nm); CI calculated with CompuSyn (Chou-Talalay)
Format: biochemical
Conditions: for Inhibition rate: single compound
Description: [drawing 3] • α-glucosidase (coming from Saccharomyces cerevisiae, Sigma); • 4-nitrophenyl-α-D-glucopyranoside (pNPG, TOKYO Chemica Industry Co., LTD); • acarbose (Acarbose, TOKYO Chemica Industry Co., LTD); • hesperetin, galangin, and formononetin (BEIJING Solarbio Technology Co., LTD); • Millipore Simplicity water purification system (Millipore, France); • sodium phosphate salt buffer solution (pH 6.8, 0.1 mol L-1); and • microplate reader TECAN infinite M200 PRO (Teacan Group Ltd., Swizerland).
an α-glucosidase solution with a concentration being 0.25 U/mL and a substrate p-nitrophenyl-α-D-glucopyranoside (pNPG) solution with a concentration being 5 mmol/mL were prepared by using a PBS buffer solution (0.1 mol/L pH 6.8).
100 μL of sample solution was added to each hole, then 40 μL of α-glucosidase (0.25 U/mL) was added, reacted for 15 min at 37° C., and then 60 μL of substrate p-nitrophenyl-α-D-glucopyranoside (5 mmol/mL) was added; and after placed at 37° C. to react for 15 min, a microplate reader measured at a wave length of 405 nm.
CI values are calculated according to CompuSyn software to evaluate synergistic effect among drugs.

T1 sequence (P53341 whole entry): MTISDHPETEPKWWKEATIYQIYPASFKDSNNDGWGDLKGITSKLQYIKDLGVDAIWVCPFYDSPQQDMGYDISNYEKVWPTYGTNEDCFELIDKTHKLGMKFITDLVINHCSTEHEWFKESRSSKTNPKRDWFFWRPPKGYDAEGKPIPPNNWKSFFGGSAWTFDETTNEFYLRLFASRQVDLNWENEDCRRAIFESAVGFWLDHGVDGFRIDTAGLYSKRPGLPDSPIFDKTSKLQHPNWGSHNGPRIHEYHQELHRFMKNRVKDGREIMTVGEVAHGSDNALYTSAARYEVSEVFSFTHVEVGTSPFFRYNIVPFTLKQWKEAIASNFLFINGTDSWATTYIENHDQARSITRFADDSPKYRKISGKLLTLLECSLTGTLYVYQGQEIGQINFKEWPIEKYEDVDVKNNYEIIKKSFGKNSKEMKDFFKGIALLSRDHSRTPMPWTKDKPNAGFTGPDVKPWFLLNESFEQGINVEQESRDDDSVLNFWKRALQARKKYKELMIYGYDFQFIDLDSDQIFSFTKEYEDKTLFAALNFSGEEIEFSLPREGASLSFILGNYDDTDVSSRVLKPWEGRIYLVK

## Vitexin
10 μg/mL
  Inhibition rate: 29.2 ± 1.4%

## O=C(CCc1ccc(O)cc1)c1c(O)cc(O)cc1O [Phloretin]
read-out: Inhibition rate
  inhibition at 8 µg/mL: 46.3 ± 2.7%

## O=c1cc(-c2ccc(O)cc2)oc2cc(O)cc(O)c12 [Apigenin]
read-out: Inhibition rate
  inhibition at 6 µg/mL: 56.1 ± 4.4%

## COc1ccc(-c2coc3cc(O)ccc3c2=O)cc1 [Formononetin]
read-out: Inhibition rate
  inhibition at 20 µg/mL: 60.1 ± 5.3%
  inhibition at 30 µg/mL: 65.2 ± 4.3%

## O=c1c(O)c(-c2ccc(O)cc2O)oc2cc(O)cc(O)c12 [Morin]
read-out: Inhibition rate
  inhibition at 1 µg/mL: 41.2 ± 2.7%

## O=C(/C=C/c1ccc(O)cc1)c1ccc(O)cc1O [Isoliquiritigenin]
read-out: Inhibition rate
  inhibition at 4 µg/mL: 35.2 ± 2.5%

## COc1cc(O)c2c(=O)cc(-c3ccc(O)cc3)oc2c1 [Genkwanin]
read-out: Inhibition rate
  inhibition at 35 µg/mL: 70.1 ± 5.5%

## COc1c(-c2ccc(O)c(O)c2)oc2cc(O)cc(O)c2c1=O [3-O-methyl quercetin]
read-out: Inhibition rate
  inhibition at 2 µg/mL: 46.2 ± 1.2%

## C[C@H]1O[C@H](O[C@H]2[C@H](O)[C@@H](O)[C@@H](O[C@H]3[C@H](O)[C@@H](O)C(O)O[C@@H]3CO)O[C@@H]2CO)[C@H](O)[C@@H](O)[C@@H]1N[C@H]1C=C(CO)[C@@H](O)[C@H](O)[C@H]1O (stereo partly shown) [acarbose]
read-out: Inhibition rate
  inhibition at 350 µg/mL: 46.2 ± 3.5%

## COc1ccc(-c2coc3cc(O)ccc3c2=O)cc1O [Calycosin]
read-out: Inhibition rate
  inhibition at 6 µg/mL: 56.6 ± 4.3%

## O=c1c(O)c(-c2cc(O)c(O)c(O)c2)oc2cc(O)cc(O)c12 [Myricetin]
read-out: Inhibition rate
  inhibition at 1 µg/mL: 41.2 ± 1.5%

## O=C1C[C@@H](c2ccc(O)cc2)Oc2cc(O)cc(O)c21 [Naringenin]
read-out: Inhibition rate
  inhibition at 25 µg/mL: 50.5 ± 4.3%

## Oc1cc(O)c2cc(O)c(-c3cc(O)c(O)c(O)c3)[o+]c2c1 [Delphinidin]
read-out: Inhibition rate
  inhibition at 1 µg/mL: 50.2 ± 4.3%

## O=c1cc(-c2ccc(O)c(O)c2)oc2cc(O)cc(O)c12 [Luteolin]
read-out: Inhibition rate
  inhibition at 1 µg/mL: 45.5 ± 2.7%

## COc1ccc(C2CC(=O)c3c(O)cc(O)cc3O2)cc1O (stereo not shown) [Hesperetin]
read-out: Inhibition rate
  inhibition at 30 µg/mL: 45.2 ± 3.2%
  inhibition at 50 µg/mL: 63.4 ± 4.2%

## Chrysin
100 μg/mL
  Inhibition rate: 51.2 ± 5.5%

## O=c1cc(-c2ccccc2)oc2cc(O)c(O)c(O)c12 [Baicalein]
read-out: Inhibition rate
  inhibition at 10 µg/mL: 38.8 ± 3.3%

## O=c1c(-c2ccc(O)cc2)coc2cc(O)ccc12 [Daidzein]
read-out: Inhibition rate
  inhibition at 8 µg/mL: 44.5 ± 2.5%

## COc1ccc(-c2coc3cc(O)cc(O)c3c2=O)cc1 [Biochanin A]
read-out: Inhibition rate
  inhibition at 0.7 µg/mL: 38.5 ± 2.1%

## O=c1c(O)c(-c2ccc(O)c(O)c2)oc2cc(O)ccc12 [Fisetin]
read-out: Inhibition rate
  inhibition at 6 µg/mL: 46.5 ± 2.3%

## Oc1cc(O)c2cc(O)c(-c3ccc(O)c(O)c3)[o+]c2c1 [Cyanidin]
read-out: Inhibition rate
  inhibition at 0.7 µg/mL: 47.5 ± 1.4%

## COc1c(-c2ccc(O)c(O)c2)oc2cc(O[C@@H]3OC(C)[C@@H](O)C(O)C3O)cc(O)c2c1=O (stereo partly shown) [Vincetoxicoside]
read-out: Inhibition rate
  inhibition at 12 µg/mL: 48.7 ± 2.1%

## O=C1c2c(O)cc(O)cc2OC(c2ccc(O)cc2O)C1O (stereo not shown) [Dihydromorin]
read-out: Inhibition rate
  inhibition at 15 µg/mL: 25.7 ± 4.7%

## O=c1c(O)c(-c2ccccc2)oc2cc(O)cc(O)c12 [Galangin]
read-out: Inhibition rate
  inhibition at 100 µg/mL: 56.3 ± 4.5%
  inhibition at 150 µg/mL: 84.4 ± 7.5%

## COc1ccc(-c2oc3cc(O)cc(O)c3c(=O)c2O)cc1 [Kaempferide]
read-out: Inhibition rate
  inhibition at 5 µg/mL: 30.8 ± 1.3%
